Data taken from patent publication US9353090B2, “Heterocyclic carboxylic acids as activators of soluble guanylate cyclase” (Boehringer Ingelheim International GmbH, priority 2014, dated 2016).
pEC50: −log10 of the molar value. In brackets after ≈: the same amount, converted by molar mass.

Legend:
[1] = target: human soluble guanylate cyclase alpha 1 and beta 1 subunits (sGC) (Homo sapiens (Human), UniProt Q02108+Q02153); test: sGC cellular activator assay (cGMP, HTRF), in the presence and absence of 50% human serum; format: cell-based; conditions: CHO cells stably expressing human sGC alpha 1/beta 1, preincubated with 40 microM ODQ; cGMP by HTRF; Table 2 does not state whether with or without 50% human serum
Description: The sGC cellular activator assay is performed in the presence and absence of 50% human serum (HS) using Chinese hamster ovary cells that have been stably transfected to express the human soluble guanylate cyclase alpha 1 and beta 1 subunits (sGC). Cells are preincubated with 40 microM 1H-[1,2,4]oxadiazolo[4,3-a]quinoxalin-1-one (ODQ), an sGC inhibitor, for one h in buffer containing 0.1% bovine serum albumin and 3-isobutyl-1-methylxanthine (IBMX). Concentration response curves are prepared for test compounds in DMSO. An intermediate dilution of the compounds is performed in either buffer containing IBMX or type AB HS containing IBMX. Diluted compounds are added to cells and they are incubated at room temperature for thirty min. cGMP is measured using a CisBio homogeneous time resolved fluorescence kit and the EC50 is calculated for each compound.
Representative compounds of the present invention were tested for activity the above assay. Preferred compounds have an EC50 of <1,000 nM in the above assay and more preferred compounds have an EC50<200 nM.

[2] = physchem; conditions: kinetic from dmso stock
[3] = Human liver microsome (HLM) metabolic stability assay; format: in vitro ADME; conditions: human liver microsomes
Description: The 5 time point, high-throughput human liver microsome (HLM) metabolic stability assay is designed to determine in vitro compound metabolism. Compounds are incubated with HLMs at a concentration of 1 uM, at 37° C., for a total of 60 min. The percent of compound remaining at 5, 15, 30, and 60 min is used to calculate the t1/2 (min), CLint (mL/min/kg), CLh (mL/min/kg), and % Qh. The assay is based on a 96-well format and can accommodate up to 92 compounds per plate (n=1).
Using the 96-well multi-channel head, the Biomek FX, equipped with a Peltier heating block/shaker, is programmed to accomplish the following steps: • 1. Pipette 175 uL of 1.15 mg/mL microsomes into each of the 96 conical inserts (Analytical Sales and Products, catalog number 96PL05) that fit into the plate of the Peltier heating block/shaker (the incubation plate) • 2. Add 5 uL of compounds from the assay plate to the microsomes and shake the mixture at 600 rpm at 42.1° C. for 10 min (a setting of 42.1° C. on the Peltier is required for the samples to incubate at 37° C.) • 3. After 10 min, prompt the user to add the NADPH plate to the deck and add 20 uL from the NADPH plate to the incubation plate to start the reaction • 4. Add 215 uL of 100%, cold acetonitrile containing an internal standard(s) to a 0 minute, 5 minute, 15 minute, 30 minute, and 60 minute “quench” plate • 5. At 0 min, 5 min, 15 min, 30 min, and 60 min into the incubation, aspirate 12 uL from the incubation mixture and add it to the quench solution to stop the reaction • 6. Add 185 uL HPLC grade water to each well of the 0, 5, 15, 30 and 60 minute quench plates to dilute compounds to the appropriate concentration for the mass spectrometer
After all time points are collected, the quench plates are sealed with 96-well pierceable plate mats or heat sealing foil and centrifuged at 3000 rpm for 15 min to pellet the microsomes.
The plates are analyzed using LC/MS/MS with electron spray ionization (ESI) and the previously determined MRM transitions. The LC method includes the following parameters:
Using an Excel template in Activitybase, the peak areas corresponding to 5, 15, 30 and 60 min are compared to the peak area at 0 min to calculate the percent of remaining compound using the following equation:
Percent compound remaining=(AUC at Time t min/AUC at Time 0 min)×100 where t=0, 5, 15, 30 or 60 min.
Time (min) is plotted against the natural logarithm (Ln) of the percent compound remaining to determine the slope. The slope is used to calculate t1/2 (min) using the equation, t1/2=0.693/slope.
Clh, Hepatic clearance • Hepatic flow*f(u)*Clint/(hepatic flow+f(u)*Clint)
Qh, % Hepatic blood flow • (Clh/Hepatic flow)*100
Preferred compounds have % Qh values of less than 24.

[4] = pH 2.2, aqueous buffer, Solubility (pH 2.2)
[5] = pH 4.5, aqueous buffer, Solubility (pH 4.5)
[6] = pH 6.8, aqueous buffer, Solubility (pH 6.8)

human soluble guanylate cyclase alpha 1 and beta 1 subunits (sGC), sequence (Q02108 whole entry partner): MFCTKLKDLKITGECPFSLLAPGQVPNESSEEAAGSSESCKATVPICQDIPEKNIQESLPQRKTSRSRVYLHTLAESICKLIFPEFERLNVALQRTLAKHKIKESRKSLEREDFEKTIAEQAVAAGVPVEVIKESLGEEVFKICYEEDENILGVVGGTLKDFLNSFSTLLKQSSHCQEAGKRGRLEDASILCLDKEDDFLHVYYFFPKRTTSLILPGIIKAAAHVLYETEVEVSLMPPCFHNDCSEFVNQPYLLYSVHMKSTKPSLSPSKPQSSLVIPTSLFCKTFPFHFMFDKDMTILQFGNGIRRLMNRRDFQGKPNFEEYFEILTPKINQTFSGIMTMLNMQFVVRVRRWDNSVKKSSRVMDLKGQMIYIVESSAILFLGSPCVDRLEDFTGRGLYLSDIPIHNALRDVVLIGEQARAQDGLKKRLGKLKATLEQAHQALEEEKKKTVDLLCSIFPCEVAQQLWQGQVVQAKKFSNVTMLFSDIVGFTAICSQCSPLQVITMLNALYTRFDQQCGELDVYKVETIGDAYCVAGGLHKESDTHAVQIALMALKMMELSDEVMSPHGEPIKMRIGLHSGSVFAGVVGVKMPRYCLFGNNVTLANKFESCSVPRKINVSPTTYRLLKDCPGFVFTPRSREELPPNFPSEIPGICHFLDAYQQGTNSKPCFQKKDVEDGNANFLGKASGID
human soluble guanylate cyclase alpha 1 and beta 1 subunits (sGC), sequence (Q02153 whole entry): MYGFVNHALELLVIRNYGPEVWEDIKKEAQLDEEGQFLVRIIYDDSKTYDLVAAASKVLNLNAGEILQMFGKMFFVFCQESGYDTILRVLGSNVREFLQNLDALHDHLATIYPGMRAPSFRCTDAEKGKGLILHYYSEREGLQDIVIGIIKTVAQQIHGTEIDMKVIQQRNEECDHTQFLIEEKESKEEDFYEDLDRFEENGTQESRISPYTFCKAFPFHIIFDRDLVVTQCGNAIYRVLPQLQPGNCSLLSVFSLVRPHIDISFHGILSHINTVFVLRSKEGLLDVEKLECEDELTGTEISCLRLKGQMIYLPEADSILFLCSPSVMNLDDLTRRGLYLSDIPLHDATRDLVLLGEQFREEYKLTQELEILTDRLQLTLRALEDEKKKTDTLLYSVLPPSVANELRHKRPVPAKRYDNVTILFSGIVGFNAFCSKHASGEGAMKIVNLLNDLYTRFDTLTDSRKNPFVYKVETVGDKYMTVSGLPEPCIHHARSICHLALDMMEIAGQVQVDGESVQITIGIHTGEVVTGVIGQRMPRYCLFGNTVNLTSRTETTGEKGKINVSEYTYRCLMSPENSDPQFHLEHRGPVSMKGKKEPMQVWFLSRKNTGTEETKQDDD

| SMILES | pEC50 [1] | solubility at 24 h [2, 4] | solubility at 24 h [2, 5] | solubility at 24 h [2, 6] | Metabolic stability (Qh %), % hepatic blood flow [3] |
| --- | --- | --- | --- | --- | --- |
| CCO[C@H]1CN(c2cccc(-c3cccc(C)c3OCc3cc4c(c(OC)c3)CN(C3CCOCC3)CC4)n2)CC[C@H]1C(=O)O [Compound 234] | 6.59 | 128 µg/mL (≈ 207 µM) | 124 µg/mL (≈ 201 µM) | 117 µg/mL (≈ 190 µM) | 55% |
| Cc1ccc(OCc2cnc3c(c2)CCN(C2CCOCC2)C3)c(-c2csc(N3CC[C@@]4(C(=O)O)C[C@H]4C3)n2)c1 [Compound 194] | 7.20 | 140 µg/mL (≈ 250 µM) | 70 µg/mL (≈ 125 µM) | 57 µg/mL (≈ 102 µM) | <24% |
| Cc1ccc(OCc2cc(C)c3c(c2C)CCN(C2COC2)C3)c(-c2cccc(N3C[C@@H]4C[C@]4(C(=O)O)C3)n2)c1 [Compound 40] | 7.42 | 98 µg/mL (≈ 182 µM) | 79 µg/mL (≈ 146 µM) | 52 µg/mL (≈ 96.4 µM) | <24% |
| Cc1cccc(-c2csc(N3CC[C@@]4(C(=O)O)C[C@H]4C3)n2)c1OCc1ccc2c(c1)CCN(C1CCOCC1)C2 [Compound 84] | 7.57 | 120 µg/mL (≈ 214 µM) | 70 µg/mL (≈ 125 µM) | 53 µg/mL (≈ 94.7 µM) | <24% |
| CO[C@H]1CN(c2cccc(-c3cc(C)ccc3OCc3ccc4c(c3C)CCN(C3CCOCC3)C4=O)n2)CC[C@H]1C(=O)O [Compound 205] | 7.28 | 109 µg/mL (≈ 182 µM) | 42.6 µg/mL (≈ 71 µM) | 10.8 µg/mL (≈ 18 µM) | <24% |
| Cc1cccc(-c2csc(N3CC[C@@]4(C(=O)O)C[C@H]4C3)n2)c1OCc1ccc2c(c1)CCN(C1COC1)C2 [Compound 85] | 7.55 | 120 µg/mL (≈ 226 µM) | 52 µg/mL (≈ 97.8 µM) | 55 µg/mL (≈ 103 µM) | 29% |
| Cc1csc(CN2CCc3c(ccc(COc4ccccc4-c4cccc(N5CC[C@@]6(C(=O)O)C[C@H]6C5)n4)c3C)C2)n1 [Compound 304] |  | 157 µg/mL (≈ 270 µM) | 154 µg/mL (≈ 265 µM) | 146 µg/mL (≈ 251 µM) | 48% |
| Cc1cccc(-c2cccc(N3CC[C@@H](C(=O)O)[C@H]4OCCC[C@@H]43)n2)c1OCc1ccc2c(c1C)CCN(C1CCOCC1)CC2 [Compound 335] | 7.10 |  |  |  |  |
| CCO[C@H]1CN(c2nccc(-c3cccc(C)c3OCc3cc(C)c4c(c3)CCN(C3CCOCC3)C4)n2)CC[C@H]1C(=O)O [Compound 245] | 7.64 |  |  |  | <24% |
| Cc1ccc(OCc2ccc3c(c2)CCN(C2CCOCC2)C3=O)c(-c2cccc(N3CC[C@@]4(C(=O)O)C[C@H]4C3)n2)c1 [Compound 193] | 7.66 |  |  |  | 52% |
| CCO[C@@H]1CN(c2nccc(-c3cccc(C)c3OCc3cc(C)c4c(c3)CCN(C3CCOCC3)C4)n2)CC[C@@H]1C(=O)O [Compound 247] | 6.18 |  |  |  | <24% |
| Cc1ccc(OCc2ccc3c(c2)CCN(C2CCC(F)(F)CC2)C3)c(-c2csc(N3C[C@H]4CC[C@@H](C3)[C@H]4C(=O)O)n2)c1 [Compound 183] | 7.10 |  |  |  | 42% |
| Cc1ccc(OCc2ccc3c(c2)CCN(C2CCOCC2)C3)c(-c2csc(N3C[C@H]4CC[C@@H](C3)[C@H]4C(=O)O)n2)c1 [Compound 184] | 7.17 |  |  |  |  |
| CO[C@H]1CN(c2nc(-c3cccc(C)c3OCc3cc(C)c4c(c3)CCN(C3CCOCC3)CC4)cs2)CC[C@H]1C(=O)O [Compound 295] |  | 109 µg/mL (≈ 180 µM) | 80.5 µg/mL (≈ 133 µM) | 79.2 µg/mL (≈ 131 µM) | <24% |
| CO[C@H]1CN(c2nc(-c3cccc(C)c3OCc3cc(C)c4c(c3)CCN(C3COC3)CC4)cs2)CC[C@H]1C(=O)O [Compound 294] |  | 108 µg/mL (≈ 187 µM) | 77.7 µg/mL (≈ 134 µM) | 77.9 µg/mL (≈ 135 µM) | <24% |

More lines, in order of rising pEC50 [1], values ahead:

| pEC50 [1] | solubility at 24 h [2, 4] | solubility at 24 h [2, 5] | solubility at 24 h [2, 6] | Metabolic stability (Qh %), % hepatic blood flow [3] | SMILES |
| --- | --- | --- | --- | --- | --- |
| 7.77 | 110 µg/mL (≈ 195 µM) | 74 µg/mL (≈ 131 µM) | 82 µg/mL (≈ 145 µM) | <24% | CO[C@H]1CN(c2nc(-c3cccc(C)c3OCc3ccc4c(c3C)CCN(C3COC3)C4)cs2)CC[C@H]1C(=O)O [Compound 166] |
| 7.77 |  |  |  |  | CO[C@H]1CN(c2nc(-c3cc(C)ccc3OCc3ccc4c(c3C)CCN(C[C@H]3CCOC3)C4)cs2)CC[C@H]1C(=O)O [Compound 179] |
| 7.80 | 110 µg/mL (≈ 193 µM) | 95 µg/mL (≈ 167 µM) | 68 µg/mL (≈ 119 µM) | <24% | COc1cc(COc2c(C)cccc2-c2cccc(N3C[C@@H]4C[C@]4(C(=O)O)C3)n2)cc2c1CN(C1CCOCC1)CC2 [Compound 27] |
| 7.85 | 140 µg/mL (≈ 239 µM) | 120 µg/mL (≈ 205 µM) | 93 µg/mL (≈ 159 µM) | <24% | CO[C@@H]1CN(c2cccc(-c3cccc(C)c3OCc3ccc4c(c3C)CCN(C3CCOCC3)C4)n2)CC[C@@H]1C(=O)O [Compound 68] |
| 8.00 | 109 µg/mL (≈ 173 µM) | 68.3 µg/mL (≈ 109 µM) | 66.7 µg/mL (≈ 107 µM) |  | CO[C@H]1CN(c2nc(-c3cccc(Cl)c3OCc3ccc4c(c3)CCN(C3CCOCC3)C[C@H]4C)cs2)CC[C@H]1C(=O)O [Compound 333] |
| 8.05 | 142 µg/mL (≈ 228 µM) | 128 µg/mL (≈ 205 µM) | 138 µg/mL (≈ 221 µM) | 30% | COC[C@H]1N(c2cccc(-c3cccc(C(F)(F)F)c3OCc3cc(C)c4c(c3)CCN(C3COC3)C4)n2)C[C@@H]2C[C@@]21C(=O)O [Compound 227] |
| 8.05 | 130 µg/mL (≈ 228 µM) | 110 µg/mL (≈ 193 µM) | 55 µg/mL (≈ 96.5 µM) | 32% | Cc1c(COc2ccccc2-c2cccc(N3CC[C@@]4(C(=O)O)C[C@H]4C3)n2)ccc2c1CCN(C[C@@H]1COCCO1)C2 [Compound 10] |
| 8.15 | 130 µg/mL (≈ 218 µM) | 98 µg/mL (≈ 165 µM) | 85 µg/mL (≈ 143 µM) | <24% | CO[C@H]1CN(c2nc(-c3cccc(C)c3OCc3cc(F)c4c(c3)CCN(C3CCOCC3)C4)cs2)CC[C@H]1C(=O)O [Compound 172] |
| 8.30 | 93 µg/mL (≈ 172 µM) | 73.7 µg/mL (≈ 136 µM) | 5.2 µg/mL (≈ 9.6 µM) |  | COCC(C)N1CCc2c(ccc(COc3ccccc3-c3cccc(N4CC[C@@]5(C(=O)O)C[C@H]5C4)n3)c2C)C1 (stereo partly shown) [Compound 310] |
| 8.40 | 120 µg/mL (≈ 209 µM) | 21 µg/mL (≈ 36.6 µM) | < 0.1 µg/mL | 34% | Cc1ccc(OCc2ccc3c(c2C)CCN(C2CCCOC2)C3)c(-c2csc(N3CC[C@@]4(C(=O)O)C[C@H]4C3)n2)c1 (stereo partly shown) [Compound 118] |
| 8.52 | 120 µg/mL (≈ 203 µM) | 68 µg/mL (≈ 115 µM) | 41 µg/mL (≈ 69.5 µM) | <24% | Cc1cc(COc2c(C)cccc2-c2csc(N3CC[C@@]4(C(=O)O)C[C@H]4C3)n2)cc2c1CN(CC1COCCO1)CC2 (stereo partly shown) [Compound 91] |
| 8.52 | 99.5 µg/mL (≈ 176 µM) | 61.6 µg/mL (≈ 109 µM) | 0.5 µg/mL (≈ 0.885 µM) | 63% | Cc1cc(CN2CCc3c(ccc(COc4ccccc4-c4cccc(N5CC[C@@]6(C(=O)O)C[C@H]6C5)n4)c3C)C2)no1 [Compound 311] |
